The source of these data is patent publication EP1178807B1, “USE OF ORG 33245 IN COMBINED INTERMITTENT HORMONE THERAPY AND CONTRACEPTION” (Akzo Nobel N.V., priority 1999, dated 2000).

The subject of one assay is orosomucoid. The experiment in a line: Binding to orosomucoid (as described in Philibert et al.). The arrangement: species or system human. Particulars: for Binding affinity to orosomucoid (relative to RU 486): relative to RU 486 (100%). The protocol:
Of several anti-progestagens the binding to orosomucoid is determined as described in Philibert et al., Antihormones in Health and Disease (M.K. Agarwal, ed.), 1991, 19, 1-17.

Assay [1] is described as follows: Anti-McPhail test for anti-progestagenic activity. It counts as in vivo. Particulars: Minimum Active Dose (MAD). The protocol: Anti-progestagenic activity is determined by using an anti-McPhail test as known to the person skilled in the art and described, int.al., in Kloosterboer et al., Human Reproduction (1994), Volume 9, Supplement 1, pages 47-52.

The minimal effective dose is the lowest level tested that produced the effect sought. `C=C1CCO[C@]12CC[C@H]1[C@@H]3CCC4=CC(=O)CCC4=C3[C@@H](c3ccc(C(C)=O)cc3)C[C@@]12C`: in the assay on orosomucoid, the “Binding affinity to orosomucoid (relative to RU 486)” value was 13,5%. The compound further had a minimal effective dose in assay [1] of 8 mg/kg.
In the same order, the values of `C=C1CCO[C@]12CC[C@H]1[C@@H]3CCC4=CC(=O)CCC4=C3[C@@H](c3ccc(SC)cc3)C[C@@]12C` are 82% and > 1 mg/kg.
Take `C=C1CCO[C@]12CC[C@H]1[C@@H]3CCC4=CC(=O)CCC4=C3[C@@H](c3ccc(OC)cc3)C[C@@]12C`: the “Binding affinity to orosomucoid (relative to RU 486)” value in the assay with orosomucoid is 64%. In assay [1], this compound registered a minimal effective dose of 1 mg/kg.
As to `C=C1CCO[C@]12CC[C@H]1[C@@H]3CCC4=CC(=O)CCC4=C3[C@@H](c3ccc(N(C)C)cc3)C[C@@]12C` [Org 33245, (11β,17α)-17,23-epoxy-11-[(4-dimethylamino)phenyl]-19,24-dinorchola-4,9,20-trien-3-one], in the assay with orosomucoid, the “Binding affinity to orosomucoid (relative to RU 486)” value was 222%. Also, in the assay with orosomucoid (result in words, said to indicate a relatively long half life), the “binding to human orosomucoid” value is “strong binding”. Further, the minimal effective dose in assay [1] was found to be 0.5 mg/kg.
